Assay results as given in US9493486B2, “Diazaspirocycloalkane and azaspirocycloalkane” (Hoffmann-La Roche Inc., priority 2012, dated 2016).

Target: ATX (human His-tagged) (Homo sapiens (Human), UniProt Q13822)
Assay: Human ATX enzyme inhibition assay (fluorescence quenching, MR121 substrate)
Type: biochemical
Details: 30 nM ATX, 1 μM MR121 substrate, 30° C.
Text: Human ATX Enzyme Inhibition Assay
Assay working solutions were made as follows:

| IC50 [nM] | Compound |
| --- | --- |
| 74 | CC(C)c1cc(C#N)ccc1OCC(=O)N1CCC2(CC1)CN(C(=O)C1CCc3[nH]nnc3C1)C2 (centres unmarked) [Example 1.25, 3-isopropyl-4-(2-oxo-2-(2-(4,5,6,7-tetrahydro-1H-benzo[d][1,2,3]triazole-5-carbonyl)-2,7-diazaspiro[3.5]nonan-7-yl)ethoxy)benzonitrile] |
| 8 | CC(C)c1cc(Cl)ccc1OCC(=O)N1CCC2(CC1)CN(C(=O)c1ccc3[nH]nnc3c1)C2 [Example 1.26, 1-(2-(1H-benzo[d][1,2,3]triazole-5-carbonyl)-2,7-diazaspiro[3.5]nonan-7-yl)-2-(4-chloro-2-isopropylphenoxy)ethanone] |
| 41 | CC(C)c1cc(Cl)ccc1OCC(=O)N1CCC2(CC1)CN(C(=O)C1CCc3[nH]nnc3C1)C2 (centres unmarked) [Example 1.27, 2-(4-chloro-2-isopropylphenoxy)-1-(2-(4,5,6,7-tetrahydro-1H-benzo[d][1,2,3]triazole-5-carbonyl)-2,7-diazaspiro[3.5]nonan-7-yl)ethanone] |
| 110 | O=C(CCc1ccc(OC(F)(F)F)cc1)N1CCC2(CC1)CN(C(=O)C1CCc3[nH]nnc3C1)C2 (centres unmarked) [Example 1.28, 1-(2-(4,5,6,7-tetrahydro-1H-benzo[d][1,2,3]triazole-5-carbonyl)-2,7-diazaspiro[3.5]nonan-7-yl)-3-(4-(trifluoromethoxy)phenyl)propan-1-one] |
| 26 | O=C(OCc1cc(Cl)cc(Cl)c1)N1CCC2(C1)CN(C(=O)c1ccc3[nH]c(=O)oc3c1)C2 [Example 2, 3,5-Dichlorobenzyl 2-(2-oxo-2,3-dihydro-benzo[d]oxazole-6-carbonyl)-2,6-diazaspiro[3.4]octane-6-carboxylate] |
| 38 | CS(=O)(=O)c1cc(Cl)cc(COC(=O)N2CCC3(CC2)CN(C(=O)c2ccc4[nH]c(=O)oc4c2)C3)c1 [Example 2.1, 3-chloro-5-(methylsulfonyl)benzyl 2-(2-oxo-2,3-dihydrobenzo[d]oxazole-6-carbonyl)-2,7-diazaspiro[3.5]nonane-7-carboxylate] |
| 13.7 | O=C(OCc1cc(Cl)cc(Cl)c1)N1CC2(CCN(C(=O)c3ccc4[nH]c(=O)oc4c3)CC2)C1 [Example 2.2, 7-(2-oxo-2,3-dihydro-benzooxazole-6-carbonyl)-2,7-diaza-spiro[3.5]nonane-2-carboxylic acid 3,5-dichloro-benzyl ester] |
| 6 | O=C(OCc1cc(Cl)cc(Cl)c1)N1CCC2(CC1)CN(S(=O)(=O)c1ccc3[nH]c(=O)oc3c1)C2 [Example 3, 3,5-Dichlorobenzyl 2-(2-oxo-2,3-dihydro-benzo[d]oxazol-6-ylsulfonyl)-2,7-diazaspiro[3.5]nonane-7-carboxylate] |
| 3560 | O=C(CCCc1ccccc1)N1CC2(CC(NS(=O)(=O)c3ccc4[nH]c(=O)oc4c3)C2)C1 [Example 3.1, 2-oxo-2,3-dihydro-benzooxazole-6-sulfonic acid [2-(4-phenyl-butyryl)-2-aza-spiro[3.3]hept-6-yl]-amide] |
| 298 | O=C(OCc1ccccc1)N1CC2(CC(NS(=O)(=O)c3ccc4[nH]c(=O)oc4c3)C2)C1 [Example 3.2, benzyl 6-(2-oxo-2,3-dihydrobenzo[d]oxazole-6-sulfonamido)-2-azaspiro[3.3]heptane-2-carboxylate] |
| 59 | O=C(CCc1cc(Cl)cc(Cl)c1)N1CC2(CC(NS(=O)(=O)c3ccc4[nH]c(=O)oc4c3)C2)C1 [Example 3.3, 2-oxo-2,3-dihydro-benzooxazole-6-sulfonic acid {2-[3-(3,5-dichloro-phenyl)-propionyl]-2-aza-spiro[3.3]hept-6-yl}-amide] |
| 19.5 | O=C(OCc1cc(Cl)cc(Cl)c1)N1CC2(CC(NS(=O)(=O)c3ccc4[nH]c(=O)oc4c3)C2)C1 [Example 3.4, 3,5-dichlorobenzyl 6-(2-oxo-2,3-dihydrobenzo[d]oxazole-6-sulfonamido)-2-azaspiro[3.3]heptane-2-carboxylate] |
| 20 | O=C(NC1CC2(C1)CN(S(=O)(=O)c1ccc3[nH]c(=O)oc3c1)C2)OCc1cc(Cl)cc(Cl)c1 [Example 3.5, [2-(2-oxo-2,3-dihydro-benzooxazole-6-sulfonyl)-2-aza-spiro[3.3]hept-6-yl]-carbamic acid 3,5-dichloro-benzyl ester] |
| 67 | CS(=O)(=O)c1cc(Cl)cc(COC(=O)N2CCC3(CC2)CN(S(=O)(=O)c2ccc4[nH]c(=O)sc4c2)C3)c1 [Example 3.6, 3-chloro-5-(methylsulfonyl)benzyl 2-(2-oxo-2,3-dihydrobenzo[d]thiazol-6-ylsulfonyl)-2,7-diazaspiro[3.5]nonane-7-carboxylate] |
| 546 | O=C(OCc1cc(Cl)cc(Cl)c1)N1CCC2(CC1)CN(Cc1ccc3[nH]c(=O)oc3c1)C2 [Example 4, 3,5-Dichlorobenzyl 2-((2-oxo-2,3-dihydro-benzo[d]oxazol-6-yl)methyl)-2,7-diaza-spiro[3.5]nonane-7-carboxylate] |
| 7 | O=C(OCc1cc(Cl)cc(Cl)c1)N1CCC2(CC1)CN(C(=O)c1ccc3[nH]c(=O)oc3c1)C2 [Example 5, 3,5-Dichlorobenzyl 2-(2-oxo-2,3-dihydrobenzo[d]oxazole-6-carbonyl)-2,7-diazaspiro[3.5]nonane-7-carboxylate] |

| IC50 [nM] | Compound |
| --- | --- |
| 61 | O=C(CCc1cc(Cl)cc(Cl)c1)N1CCC2(CC1)CN(C(=O)c1ccc3[nH]c(=O)oc3c1)C2 [Example 5.1, 6-(7-(3-(3,5-dichlorophenyl)propanoyl)-2,7-diazaspiro[3.5]nonane-2-carbonyl)benzo[d]oxazol-2(3H)-one] |
| 26.5 | O=C(NC1CC2(C1)CN(C(=O)OCc1cc(Cl)cc(Cl)c1)C2)c1ccc2[nH]c(=O)oc2c1 [Example 5.2, 6-[(2-oxo-2,3-dihydro-benzooxazole-6-carbonyl)-amino]-2-aza-spiro[3.3]heptane-2-carboxylic acid 3,5-dichloro-benzyl ester] |
| 26 | O=C(/C=C/c1cc(Cl)cc(Cl)c1)N1CCC2(CC1)CN(C(=O)c1ccc3[nH]nnc3c1)C2 [Example 6, (E)-1-(2-(1H-benzo[d][1,2,3]triazole-5-carbonyl)-2,7-diazaspiro[3.5]nonan-7-yl)-3-(3,5-dichlorophenyl)prop-2-en-1-one] |
| 362 | O=C(CCc1cc(Cl)cc(Cl)c1)N1CCC2(CC1)CC(Nc1ccc3[nH]c(=O)oc3c1)C2 [Example 6.1, 6-(7-(3-(3,5-dichlorophenyl)propanoyl)-7-azaspiro[3.5]nonan-2-ylamino)benzo[d]oxazol-2(3H)-one] |
| 298 | O=C(COc1cc(Cl)cc(Cl)c1)N1CCC2(CC1)CN(C(=O)c1ccc3[nH]nnc3c1)C2 [Example 6.2, 1-(2-(1H-benzo[d][1,2,3]triazole-5-carbonyl)-2,7-diazaspiro[3.5]nonan-7-yl)-2-(3,5-dichlorophenoxy)ethanone] |
| 2660 | O=C(c1cc(Cl)cc(Cl)c1)N1CCC2(CC1)CN(C(=O)c1ccc3[nH]nnc3c1)C2 [Example 6.3, (2-(1H-benzo[d][1,2,3]triazole-5-carbonyl)-2,7-diazaspiro[3.5]nonan-7-yl)(3,5-dichlorophenyl)methanone] |
| 22 | O=C(/C=C/c1cc(Cl)cc(Cl)c1)N1CCC2(CC1)CN(C(=O)c1ccc3[nH]c(=O)oc3c1)C2 [Example 6.4, 6-{7-[(E)-3-(3,5-dichloro-phenyl)-acryloyl]-2,7-diaza-spiro[3.5]nonane-2-carbonyl}-3H-benzooxazol-2-one] |
| 605 | O=C(c1ccc2[nH]nnc2c1)N1CCC2(CCN(C(=O)c3cc4cc(Cl)ccc4[nH]3)C2)C1 (centres unmarked) [Example 6.6, (7-(1H-benzo[d][1,2,3]triazole-5-carbonyl)-2,7-diazaspiro[4.4]nonan-2-yl)(5-chloro-1H-indol-2-yl)methanone] |
| 3930 | O=C(c1ccc2[nH]nnc2c1)N1CCC2(CCN(C(=O)c3cc4cc(Cl)ccc4o3)C2)C1 (centres unmarked) [Example 6.7, (7-(1H-benzo[d][1,2,3]triazole-5-carbonyl)-2,7-diazaspiro[4.4]nonan-2-yl)(5-chlorobenzofuran-2-yl)methanone] |
| 91 | O=C(NCc1cnn[nH]1)C1CC2(CCN(C(=O)/C=C/c3ccc(OC(F)(F)F)cc3)CC2)C1 [Example 6.8, (E)-N-((1H-1,2,3-triazol-5-yl)methyl)-7-(3-(4-(trifluoromethoxy)phenyl)acryloyl)-7-azaspiro[3.5]nonane-2-carboxamide] |
| 128 | O=C(C#Cc1ccc(Cl)cc1)N1CCC2(CC1)CN(C(=O)c1ccc3[nH]nnc3c1)C2 [Example 6.9, 1-(2-(1H-benzo[d][1,2,3]triazole-5-carbonyl)-2,7-diazaspiro[3.5]nonan-7-yl)-3-(4-chlorophenyl)prop-2-yn-1-one] |
| 826 | O=C(C#Cc1cccc(Cl)c1)N1CCC2(CC1)CN(C(=O)c1ccc3[nH]nnc3c1)C2 [Example 6.10, 1-(2-(1H-benzo[d][1,2,3]triazole-5-carbonyl)-2,7-diazaspiro[3.5]nonan-7-yl)-3-(3-chlorophenyl)prop-2-yn-1-one] |
| 43 | O=C(c1ccc2[nH]nnc2c1)N1CC2(CCN(c3nnc(-c4cc(Cl)cc(Cl)c4)o3)CC2)C1 [Example 7, (1H-benzo[d][1,2,3]triazol-5-yl)(7-(5-(3,5-dichlorophenyl)-1,3,4-oxadiazol-2-yl)-2,7-diazaspiro[3.5]nonan-2-yl)methanone] |
| 260 | O=C(c1ccc2[nH]nnc2c1)N1CC2(CCN(c3nnc(-c4ccc(Cl)cc4)o3)CC2)C1 [Example 7.1, (1H-benzo[d][1,2,3]triazol-5-yl)(7-(5-(4-chlorophenyl)-1,3,4-oxadiazol-2-yl)-2,7-diazaspiro[3.5]nonan-2-yl)methanone] |
| 178 | O=C(c1ccc2[nH]nnc2c1)N1CC2(CCN(c3nnc(-c4ccc(Cl)cc4)s3)CC2)C1 [Example 8, (1H-Benzo[d][1,2,3]triazol-5-yl)(7-(5-(4-chlorophenyl)-1,3,4-thiadiazol-2-yl)-2,7-diazaspiro[3.5]nonan-2-yl)methanone] |
| 1060 | O=C(NCc1cc(Cl)cc(Cl)c1)N1CCC2(CC1)CN(C(=O)c1ccc3[nH]nnc3c1)C2 [Example 9, 2-(1H-Benzo[d][1,2,3]triazole-5-carbonyl)-N-(3,5-dichlorobenzyl)-2,7-diazaspiro[3.5]nonane-7-carboxamide] |
